Laboratory results from ChEMBL document CHEMBL5113390, “Design, synthesis and antitumor evaluation of novel 1H-indole-2-carboxylic acid derivatives targeting 14-3-3η protein” (Eur J Med Chem, 2022).
Active and inactive are the calls of the source. The rule behind the calls is not given here.

What was measured:
[1] = system: hERG; assay: Selectivity ratio of IC50 for inhibition of hERG by automated patch clamp analysis to IC50 for antiproliferative activity against human HepG2 cells assessed as reduction in cell viability incubated for 72 hrs by MTT assay; type: toxicity, cell-based; details: read-out: Ratio IC50
[2] = system: Hep 3B2; assay: Induction of cell cycle arrest in human Hep3B cells assessed as accumulation at S phase at 1 uM incubated for 48 hrs by flow cytometry analysis (reference value: 30.56 %); type: functional
[3] = system: Hep 3B2; assay: Antiproliferative activity against human Hep3B cells assessed as reduction in cell viability incubated for 72 hrs by MTT assay; type: functional, cell-based
[4] = system: hERG; assay: Selectivity ratio of IC50 for inhibition of hERG by automated patch clamp analysis to IC50 for antiproliferative activity against human SNU-387 cells assessed as reduction in cell viability incubated for 72 hrs by MTT assay; type: toxicity, cell-based; details: read-out: Ratio IC50
[5] = system: Hep 3B2; assay: Downregulation of AKT expression in human Hep3B cells measured after 24 hrs by western blot analysis; type: functional, cell-based; details: dose 0.5-5 µM, DDE = dose-dependent effect
[6] = system: Hep 3B2; assay: Antiproliferative activity against human Hep3B cells assessed as reduction in cell viability measured after 7 days by crystal violet staining based assay; type: functional; details: dose 1-10 µM, time 7.0 day, DDE = dose-dependent effect
[7] = system: Hep 3B2; assay: Inhibition of cell invasion in human Hep3B cells incubated for 72 hrs by crystal violet staining based transwell assay; type: functional; details: dose 1-10 µM, DDE = dose-dependent effect
[8] = system: Hep 3B2; assay: Induction of cell cycle arrest in human Hep3B cells assessed as accumulation at S phase at 10 uM incubated for 48 hrs by flow cytometry analysis (reference value: 30.56 %); type: functional
[9] = system: Hep 3B2; assay: Induction of cell cycle arrest in human Hep3B cells assessed as accumulation at G2/M phase at 5 uM incubated for 48 hrs by flow cytometry analysis (reference value: 8.59 %); type: functional
[10] = system: Hep 3B2; assay: Induction of cell cycle arrest in human Hep3B cells assessed as accumulation at G0/G1 phase at 2.5 uM incubated for 48 hrs by flow cytometry analysis (reference value: 60.85 %); type: functional
[11] = Metabolic stability in rat liver microsomes assessed as half life; type: ADME, Microsome
[12] = target: T1, 14-3-3 protein eta (Homo sapiens) (UniProt Q04917); assay: Inhibition of 14-3-3 eta in human Hep3B cells assessed as reduction in ERK phosphorylation measured after 24 hrs by western blot analysis; type: cell-based; details: dose 0.5-5 µM, DDE = dose-dependent effect
T1 sequence (whole entry): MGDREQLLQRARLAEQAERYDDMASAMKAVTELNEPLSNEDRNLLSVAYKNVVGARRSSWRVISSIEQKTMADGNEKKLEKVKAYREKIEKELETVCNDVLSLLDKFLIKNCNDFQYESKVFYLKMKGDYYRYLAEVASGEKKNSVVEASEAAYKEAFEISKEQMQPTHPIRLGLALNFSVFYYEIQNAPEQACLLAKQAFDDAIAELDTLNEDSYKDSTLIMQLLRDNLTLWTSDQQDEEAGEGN

[13] = Metabolic stability in human liver microsomes assessed as half life; type: ADME, Microsome
[14] = system: Hep 3B2; assay: Induction of apoptosis in human Hep3B cells assessed as necrotic cells at 10 uM measured after 48 hrs by Annexin V/FITC-PI staining based flow cytometry assay (reference value: 0.12%); type: functional
[15] = system: Hep 3B2; assay: Induction of apoptosis in human Hep3B cells assessed as early apoptotic cells at 2.5 uM measured after 48 hrs by Annexin V/FITC-PI staining based flow cytometry assay (reference value: 6.65%); type: functional
[16] = system: Hep 3B2; assay: Induction of cell cycle arrest in human Hep3B cells assessed as accumulation at S phase at 2.5 uM incubated for 48 hrs by flow cytometry analysis (reference value: 30.56 %); type: functional
[17] = target: T1, 14-3-3 protein eta (Homo sapiens); assay: Inhibition of 14-3-3 eta in human Hep3B cells assessed as reduction in AKT phosphorylation at T308 residue measured after 24 hrs by western blot analysis; type: cell-based; details: dose 0.5-5 µM, DDE = dose-dependent effect
[18] = target: T2, 14-3-3 protein eta (Homo sapiens, UniProt Q04917); assay: Binding affinity to 14-3-3 eta (unknown origin) assessed as dissociation constant by biolayer interferometry assay
T2 sequence (Q04917 whole entry): T1 sequence (whole entry)

[19] = system: Hep 3B2; assay: Induction of apoptosis in human Hep3B cells assessed as early apoptotic cells at 1 uM measured after 48 hrs by Annexin V/FITC-PI staining based flow cytometry assay (reference value: 6.65%); type: functional
[20] = system: Hep 3B2; assay: Induction of apoptosis in human Hep3B cells assessed as viable cells at 1 uM measured after 48 hrs by Annexin V/FITC-PI staining based flow cytometry assay (reference value: 90.09%); type: functional; details: read-out: Activity
[21] = system: Hep 3B2; assay: Induction of apoptosis in human Hep3B cells assessed as late apoptotic cells at 10 uM measured after 48 hrs by Annexin V/FITC-PI staining based flow cytometry assay (reference value: 3.14%); type: functional
[22] = system: Hep 3B2; assay: Induction of apoptosis in human Hep3B cells assessed as upregulation of cleaved caspase-8 expression measured after 48 hrs by Western blot analysis; type: functional, cell-based; details: dose 5-20 µM, DDE = dose-dependent effect
[23] = system: Hep 3B2; assay: Induction of apoptosis in human Hep3B cells assessed as necrotic cells at 1 uM measured after 48 hrs by Annexin V/FITC-PI staining based flow cytometry assay (reference value: 0.12%); type: functional
[24] = Metabolic stability in human liver microsomes assessed as intrinsic clearance; type: ADME, Microsome; details: read-out: CLH
[25] = system: Hep 3B2; assay: Induction of apoptosis in human Hep3B cells assessed as upregulation of cleaved caspase-3 expression at 5 to 20 uM measured after 48 hrs by Western blot analysis; type: functional, cell-based; details: dose 5-20 µM
[26] = system: Bel-7402; assay: Antiproliferative activity against human Bel-7402 cells assessed as reduction in cell viability incubated for 72 hrs by MTT assay; type: functional, cell-based; details: Bel-7402, 72 h
[27] = system: Hep 3B2; assay: Induction of apoptosis in human Hep3B cells assessed as late apoptotic cells at 2.5 uM measured after 48 hrs by Annexin V/FITC-PI staining based flow cytometry assay (reference value: 3.14%); type: functional
[28] = target: Voltage-gated inwardly rectifying potassium channel KCNH2 (Homo sapiens, UniProt Q12809); assay: Inhibition of hERG by automated patch clamp analysis; type: toxicity
[29] = system: Hep 3B2; assay: Induction of apoptosis in human Hep3B cells assessed as viable cells at 10 uM measured after 48 hrs by Annexin V/FITC-PI staining based flow cytometry assay (reference value: 90.09%); type: functional; details: read-out: Activity
[30] = system: Hep 3B2; assay: Induction of apoptosis in human Hep3B cells assessed as upregulation of cleaved PARP expression at 5 to 20 uM measured after 48 hrs by Western blot analysis; type: functional, cell-based; details: dose 5-20 µM
[31] = Metabolic stability in rat liver microsomes assessed as intrinsic clearance; type: ADME, Microsome; details: read-out: CLH
[32] = system: hERG; assay: Selectivity ratio of IC50 for inhibition of hERG by automated patch clamp analysis to IC50 for antiproliferative activity against human Hep3B cells assessed as reduction in cell viability incubated for 72 hrs by MTT assay; type: toxicity, cell-based; details: read-out: Ratio IC50
[33] = system: Hep 3B2; assay: Induction of apoptosis in human Hep3B cells assessed as necrotic cells at 5 uM measured after 48 hrs by Annexin V/FITC-PI staining based flow cytometry assay (reference value: 0.12%); type: functional
[34] = system: Hep 3B2; assay: Induction of apoptosis in human Hep3B cells assessed as viable cells at 5 uM measured after 48 hrs by Annexin V/FITC-PI staining based flow cytometry assay (reference value: 90.09%); type: functional; details: read-out: Activity

Sequence of Voltage-gated inwardly rectifying potassium channel KCNH2 (Q12809 whole entry): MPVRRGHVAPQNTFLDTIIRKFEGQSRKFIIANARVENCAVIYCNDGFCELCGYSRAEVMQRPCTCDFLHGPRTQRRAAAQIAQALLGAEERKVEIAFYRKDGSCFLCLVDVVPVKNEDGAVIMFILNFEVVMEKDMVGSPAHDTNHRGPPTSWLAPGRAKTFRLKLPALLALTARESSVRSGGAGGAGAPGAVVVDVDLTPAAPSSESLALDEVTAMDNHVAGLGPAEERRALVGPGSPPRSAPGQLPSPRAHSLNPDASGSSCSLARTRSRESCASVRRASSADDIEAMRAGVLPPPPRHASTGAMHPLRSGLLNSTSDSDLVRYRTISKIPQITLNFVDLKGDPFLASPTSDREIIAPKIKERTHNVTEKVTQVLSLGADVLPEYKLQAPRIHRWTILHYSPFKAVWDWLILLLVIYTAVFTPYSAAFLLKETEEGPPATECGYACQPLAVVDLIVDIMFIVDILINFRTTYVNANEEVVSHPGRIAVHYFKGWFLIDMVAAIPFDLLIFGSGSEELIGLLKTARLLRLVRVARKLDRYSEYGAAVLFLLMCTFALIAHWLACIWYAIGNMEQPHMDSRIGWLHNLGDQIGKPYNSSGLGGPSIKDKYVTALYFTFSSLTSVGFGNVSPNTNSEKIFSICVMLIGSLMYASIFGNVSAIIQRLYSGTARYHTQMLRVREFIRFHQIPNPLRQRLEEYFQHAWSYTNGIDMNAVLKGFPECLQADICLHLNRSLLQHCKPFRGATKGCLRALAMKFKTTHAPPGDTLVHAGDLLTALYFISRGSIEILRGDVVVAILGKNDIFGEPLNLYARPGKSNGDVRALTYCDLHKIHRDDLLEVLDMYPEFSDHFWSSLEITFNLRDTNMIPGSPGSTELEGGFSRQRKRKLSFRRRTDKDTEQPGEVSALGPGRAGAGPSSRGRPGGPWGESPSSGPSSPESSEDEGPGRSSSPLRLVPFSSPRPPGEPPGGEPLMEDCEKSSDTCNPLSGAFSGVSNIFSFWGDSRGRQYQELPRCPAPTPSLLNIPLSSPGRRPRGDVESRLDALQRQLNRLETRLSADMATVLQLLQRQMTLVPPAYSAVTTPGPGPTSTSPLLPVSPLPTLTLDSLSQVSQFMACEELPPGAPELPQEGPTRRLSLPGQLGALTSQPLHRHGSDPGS

## COc1cccc(CNCc2c(C(=O)O)n(Cc3ccc(C)cc3)c3cc(C(C)C)ccc23)c1
[1]
  selectivity ratio at 72 h: 10.1
[2]
  Activity: 35.59%
[3]
  IC50: 4.07 µM
[4]
  selectivity ratio at 72 h: 6.32
[5]
  inhibition: Dde
[6]
  Activity: Dde
[7]
  inhibition: Dde
[8]
  Activity: 29.71%
[9]
  Activity: 3.79%
[10]
  Activity: 59.12%
[11]
  half-life: 9.25 min
[12]
  inhibition: Dde
[13]
  half-life: 7.31 min
[14]
  Activity: 2.82%
[15]
  Activity: 8.74%
[16]
  Activity: 36.4%
[17]
  inhibition: Dde
[18]
  Kd: 35 µM
[19]
  Activity: 6.8%
[20]
  viability at 1 µM: 88%
[21]
  Activity: 13.52%
[22]
  Activity: Dde
[23]
  Activity: 0.38%
[24]
  CLint scaled: 238 mL/min/kg
[25]
  Activity: Active
[26]
  IC50: 5.92 µM
[27]
  Activity: 5.02%
[28]
  IC50: 34.6 µM
[29]
  viability at 10 µM: 61.9%
[30]
  Activity: Active
[31]
  CLint scaled: 269 mL/min/kg
[32]
  selectivity ratio at 72 h: 8.5
[33]
  Activity: 1.07%
[34]
  viability at 5 µM: 79.9%
